Experimental data published in patent publication US6900010B2, “Compositions and methods for detecting human immunodeficiency virus” (MUSC Foundation For Research Development, priority 1999, dated 2005).

System: HIV (strain GRCSF) in HeLaD4R4 cells
Experiment: HIV infection of HeLaD4R4 cells with lacZ reporter, X-gal staining
Assay type: cell-based
Excerpt: A recombinant cell line was established from human cervical cancer HeLa cells. The HeLa cells were cotransfected with an expression vector (pRepD4R4) and a vector (pTAR3Clac) at a 1:1 ratio. As shown in FIG. 2A the expression vector pRepD4R4 includes CD4 receptor and CXCR4 receptor genes that are separated by an IRES sequence. As shown FIG. 2B the vector pTAR3Clac includes a reporter sequence comprising a promoter region that includes three copies of TAR sequences and a CMV basic promoter, and a lacZ reporter gene whose expression is under the control of the promoter. The stably-transfected cells were selected by culturing in medium containing G418 at 900 μg/ml. Each clone of the cells selected was subsequently cultured in duplicates, and one of the duplicates was infected with a low titer HIV stock solution. The low-titer HIV stock was collected from supernatant of a HeLa cell culture that was transfected with a B-cell tropic HIV provirus DNA (strain GRCSF) and incubated for 3 days post transfection.
Upon infection of HIV contained in the stock solution, Tat protein expressed from the viral genome binds to TAR and induces expression of lacZ reporter gene to produce high level of β-galactosidase. The cell clones expressing β-galactosidase and stained blue with X-gal were identified, and the cells from the uninfected duplicate of the darkest blue colony were propagated. […]

Cc1cn([C@H]2C[C@H](N=[N+]=[N-])[C@@H](CO)O2)c(=O)[nH]c1=O [AZT, zidovudine]
cells infected and stained blue (HIV replication and infection) (AZT 100 μg/ml, four days of incubation, HeLaD4R4 cells): only a few clusters of cells were infected and stained blue | expression of the reporter gene (in the presence of AZT, FIG. 3F compared with FIGS. 3B-3E): significantly reduced
